Test systems include DLD-1 colon; HOP-62 NSCLC; LOX IMVI melanoma; M19-MEL melanoma; SF-295 CNS; SF-539 CNS; HL-60(TB) leukemia; HS 578T breast; NCI/ADR-RES ovarian; PC-3 prostate.
What all share (test): NCI anticancer screen, dose series, 48 h

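96-well plates; 48 h exposure; 5 concentrations. Endpoints by linear interpolation between flanking doses. Not reached: highest tested concentration assigned. GI50 = concentration required for 50% inhibition of growth. TGI: total growth inhibition.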

On to `Cc1cc2c(c(C(=O)O)c1C)-c1cccc(F)c1C2=O`, for which the TGI in the assay on DLD-1 colon, in the assay on HOP-62 NSCLC, in the assay on LOX IMVI melanoma, in the assay with M19-MEL melanoma and in the assay on SF-295 CNS was greater than 100 µM throughout.

`CCCCCCN(N)C(=O)CC#N`: the TGI with DLD-1 colon, in the assay on SF-539 CNS, in the assay with HOP-62 NSCLC, with LOX IMVI melanoma and in the assay with M19-MEL melanoma was greater than 100 µM in each case.

For `COc1cc2nc(NCCCCCNC(=O)c3ccco3)nc(N)c2cc1OC`, the TGI is 36.2 µM in the assay with SF-539 CNS; 61.3 µM in the assay on HOP-62 NSCLC; 61.4 µM in the assay on M19-MEL melanoma; 43.3 µM in the assay on HL-60(TB) leukemia; greater than 100 µM in the assay with SF-295 CNS.

With `N#Cc1ccc(N=Cc2c([O-])ccc3ccccc23)cc1.[C-]#[O+].[C-]#[O+].[Ir]`, the GI50 in the assay on DLD-1 colon was 1.96 µM; in the assay on SF-539 CNS, 15.2 µM; in the assay with HOP-62 NSCLC it was 20.6 µM; in the assay on LOX IMVI melanoma it was 9.88 µM; in the assay with HL-60(TB) leukemia it was 1.5 µM; in the assay on SF-295 CNS, 16.9 µM. The TGI with DLD-1 colon came out at 4.09 µM; in the assay on SF-539 CNS it was 29.2 µM; in the assay on HOP-62 NSCLC, 42 µM; with LOX IMVI melanoma it was 22.4 µM; with HL-60(TB) leukemia, 5.18 µM; with SF-295 CNS, 35.7 µM.

Take `C[C@@H]1O[C@@H](OC[C@H]2O[C@@H](OCCc3ccc(O)c(O)c3)[C@H](O)[C@@H](O)[C@@H]2OC(=O)/C=C/c2ccc(O)c(O)c2)[C@H](O)[C@H](O)[C@H]1O`: the GI50 in the assay on HS 578T breast, in the assay with SF-539 CNS, with HOP-62 NSCLC, in the assay on LOX IMVI melanoma, with HL-60(TB) leukemia and with SF-295 CNS was greater than 100 µM each time. The GI50 in the assay with NCI/ADR-RES ovarian was 74.3 µM; in the assay with PC-3 prostate, greater than 100 µM. The TGI in the assay with HS 578T breast, in the assay with SF-539 CNS, in the assay with HOP-62 NSCLC, in the assay on LOX IMVI melanoma, in the assay with HL-60(TB) leukemia and with SF-295 CNS was greater than 100 µM in each case. The TGI in the assay on NCI/ADR-RES ovarian and with PC-3 prostate was greater than 100 µM throughout.

Consider `COc1ccc(C(Cl)=C(c2ccc(OCCN(C)C)cc2)c2ccc(OCCN(C)C)cc2)cc1`, for which the TGI amounted to 11.3 µM in the assay on DLD-1 colon; 2.93 µM with SF-539 CNS; 10.4 µM in the assay with HOP-62 NSCLC; 3.65 µM in the assay with HL-60(TB) leukemia; 3.24 µM in the assay with SF-295 CNS.

On to `CN(CCCCCl)P(=O)(OCCS(=O)(=O)CC(NC(=O)CCC(N)C(=O)O)C(=O)NC(C(=O)O)c1ccccc1)OCC1OC(n2cc(F)c(=O)[nH]c2=O)CC1O` (stereo unspecified), for which the GI50 with HS 578T breast is 5.89 µM; in the assay with SF-539 CNS it was less than 0.0105 µM; in the assay on HOP-62 NSCLC, less than 0.01 µM; in the assay on LOX IMVI melanoma it was less than 0.0127 µM; in the assay with HL-60(TB) leukemia it was 4.87 µM; with SF-295 CNS it was 0.0368 µM. In addition, the GI50 is 0.323 µM with NCI/ADR-RES ovarian and 0.882 µM in the assay on PC-3 prostate. The TGI in the assay with HS 578T breast was 97.6 µM; with SF-539 CNS it was 7.74 µM; in the assay on HOP-62 NSCLC, 6.99 µM; in the assay with LOX IMVI melanoma, 52.2 µM; in the assay on HL-60(TB) leukemia, 31.3 µM; with SF-295 CNS it was greater than 53.8 µM. Also, the TGI in the assay on NCI/ADR-RES ovarian was greater than 65.1 µM; with PC-3 prostate, greater than 36.1 µM.

As for `CN(C)c1ccc(N=Nc2ccncc2)cc1`, the TGI with HS 578T breast, in the assay with SF-539 CNS, in the assay on HOP-62 NSCLC, in the assay on LOX IMVI melanoma, in the assay with HL-60(TB) leukemia and in the assay with SF-295 CNS was greater than 100 µM in each case. In addition, the TGI in the assay on NCI/ADR-RES ovarian and in the assay on PC-3 prostate was greater than 100 µM in each case.

In the case of `COC(=O)c1nc(-c2ccccc2)oc1S(=O)(=O)n1nc(C)cc1N`, the GI50 was 25.8 µM in the assay on HS 578T breast; 14.4 µM in the assay with SF-539 CNS; 27.9 µM in the assay with HOP-62 NSCLC; 1.51 µM in the assay on LOX IMVI melanoma; 3.02 µM with HL-60(TB) leukemia; 29.7 µM in the assay with SF-295 CNS. The GI50 is 22.5 µM in the assay on NCI/ADR-RES ovarian and 18.3 µM with PC-3 prostate. The TGI in the assay with HS 578T breast is 90.2 µM; in the assay on SF-539 CNS, 27.7 µM; with HOP-62 NSCLC, 84.2 µM; in the assay on LOX IMVI melanoma, 3.34 µM; with HL-60(TB) leukemia, 12.5 µM; with SF-295 CNS, greater than 100 µM. The TGI in the assay with NCI/ADR-RES ovarian amounted to 57.6 µM; in the assay on PC-3 prostate it was 33.5 µM.

On to `C[C@@H]1O[C@@H](O[C@H]2CC[C@@]3(C)[C@H](CCC4[C@@H]3C(O)C[C@]3(C)[C@@H](c5ccc(=O)oc5)CC[C@]43O)C2)[C@H](O)[C@H](O)[C@H]1O` (stereo partly specified), for which the GI50 in the assay with HS 578T breast was less than 0.00325 µM; in the assay on SF-539 CNS, 0.00421 µM; with HOP-62 NSCLC, 0.00389 µM; with LOX IMVI melanoma, 0.00519 µM; in the assay with HL-60(TB) leukemia, 0.0049 µM; in the assay with SF-295 CNS, 0.00664 µM. In addition, the GI50 is less than 0.00325 µM in the assay on NCI/ADR-RES ovarian and 0.00462 µM in the assay on PC-3 prostate. Besides, the TGI with HS 578T breast came out at 0.0659 µM; with SF-539 CNS, 0.00897 µM; in the assay on HOP-62 NSCLC, 0.0057 µM; in the assay on LOX IMVI melanoma it was 0.0101 µM; in the assay with HL-60(TB) leukemia it was 0.00768 µM; in the assay on SF-295 CNS it was 0.0291 µM. The results for the TGI in the assay on NCI/ADR-RES ovarian and in the assay with PC-3 prostate were 0.00578 µM and 0.0296 µM, respectively.

In the case of `N#CN1CC[C@H](C(=O)Nc2ncc(-c3ccncc3)s2)C1`, the GI50 with HS 578T breast is 0.0948 µM; in the assay on SF-539 CNS, less than 0.016 µM; with HOP-62 NSCLC it was 0.0689 µM; in the assay with LOX IMVI melanoma it was less than 0.019 µM; in the assay on HL-60(TB) leukemia it was less than 0.0171 µM; in the assay with SF-295 CNS, 0.226 µM. The GI50 with NCI/ADR-RES ovarian was less than 0.0242 µM; with PC-3 prostate it was 0.0582 µM. The TGI in the assay on HS 578T breast was 4.66 µM; with SF-539 CNS it was 0.164 µM; with HOP-62 NSCLC, 3.92 µM; in the assay on LOX IMVI melanoma, greater than 100 µM; in the assay on HL-60(TB) leukemia, less than 0.028 µM; in the assay on SF-295 CNS, greater than 38.9 µM. Also, the TGI was greater than 100 µM in the assay on NCI/ADR-RES ovarian and 12.7 µM in the assay with PC-3 prostate.

In the case of `COc1ccc(C(=O)N2c3ccccc3Sc3ccccc32)c(OC)c1`, the GI50 was 0.482 µM in the assay on HS 578T breast; 0.333 µM in the assay on SF-539 CNS; 0.822 µM in the assay on HOP-62 NSCLC; 0.601 µM with LOX IMVI melanoma; 0.297 µM in the assay on HL-60(TB) leukemia; 0.484 µM with SF-295 CNS. For the same molecule, the GI50 is 0.4 µM in the assay on NCI/ADR-RES ovarian and 0.43 µM in the assay with PC-3 prostate. Also, the TGI was greater than 100 µM in the assay with HS 578T breast; 4.37 µM with SF-539 CNS; greater than 100 µM with HOP-62 NSCLC; greater than 100 µM in the assay with LOX IMVI melanoma; 18.5 µM with HL-60(TB) leukemia; greater than 100 µM in the assay with SF-295 CNS. Besides, the TGI is 42.1 µM in the assay with NCI/ADR-RES ovarian and greater than 100 µM in the assay on PC-3 prostate.

For the origin of these results see PubChem BioAssay (NCI).
